Experimental data from US4183939A, “Glaucine analgesic method” (priority 1978, dated 1980).
Counter-ions that a name gives are not always drawn. Like-named read-outs stand apart in the source and are kept apart here.

Assays:
mice [1] = test: phenyl-p-quinone mouse writhing test (oral analgesic activity); format: in vivo; settings: orally 30 minutes prior to phenyl-p-quinone challenge; for ED50: Mus musculus, po, 0.5 h
Method: Test compounds were evaluated for oral analgesic activity in the phenyl-p-quinone mouse writhing test of Hendershot & Forsaith, J. Pharmacol. Exptl. Therap. 125(3), 237 (1959). Test compounds were administered orally 30 minutes prior to the phenyl-p-quinone challenge. […]

mice [2] = format: in vivo; settings: for jumping behavior after naloxone (in words): naloxone 100 mg/kg intraperitoneal; for stimulation and Straub tail: increasing doses on two consecutive days, d,l-glaucine phosphate highest dose 100 mg/kg
Method: Physical dependency liability was evaluated in mice by the procedure of Saelens, et al., Aoch. Int. Pharmacodynam, 190:213-218, 1971. In this procedure, mice are administered increasing doses of a test compound at intervals on two consectuive days. The last dosage on the second day is followed by intraperitoneal injection of the morphine antagonist, naloxone, at a dosage of 100 mg/kg, and the mice are observed for characteristic jumping behavior indicative of opiate withdrawals or morphine antaganism.

mice [3] = test: acute lethality (LD50) in mice; format: in vivo; settings: mortality within 72 hours
Method: (§1) In other operations, various dosages of d,l-glaucine phosphate were administered to groups of mice by the oral route or by intraperitoneal injection, and the dosage which is lethal to 50 percent of the mice (LD50) was calculated from the mortality observations within 72 hours after administration.

monkeys = test: abuse potential: self-administration in codeine-habituated monkeys; format: in vivo; settings: codeine 100 micrograms/kg per injection; d,l-glaucine phosphate substituted at 50, 100, 200 and 400 micrograms/kg per injection
Description: The abuse potential of d,l-glaucine phosphate was studied in two monkeys in a procedure similar to that described by Deneau, et al., Psychopharmacologia 16(1):30-48, 1969.
In this procedure, the test monkeys are restrained and catheter inserted into the external jugular vein for injection of test substances in response to pressing a bar lever by the monkey. The test monkeys are first habituated to self-administer codeine at a rate of 100 micrograms/kilograms per injection. The self-administration rate of the two monkeys so trained and habituated was about 100 to 150 lever pushes per two hour session at the 100 microgram codeine level. […]

[4] = acute lethality (LD50) in mice; format: in vivo; settings: mouse, in vivo, mortality within 72 hours
Method: as §1

[5] = format: in vivo; settings: intraperitoneal injection 45-60 minutes before testing
mice [6] = test: protecting mice against writhing induced by intraperitoneal injection of aqueous 0.1 percent hydrochloric acid; format: in vivo; settings: subcutaneous, 15 minutes before HCl; for ED50: Mus musculus, sc
Method: l-Glaucine hydrobromide and d-glaucine hydrobromide were evaluated for analgesic activity in protecting mice against characteristic writhing induced by intraperitoneal injection of aqueous 0.1 percent hydrochloric acid, injected 15 minutes after subcutaneous injection of a test compound.

mice [7] = test: animal or person; format: in vivo; settings: Mus musculus, sc, 0.5 h; first evaluation; subcutaneous injection 30 minutes before testing; read-out: ED50 (hot plate)
Method: The test compounds were administered by subcutaneous injection 30 minutes before testing.

[8] = plasma concentration levels of glaucine in guinea pigs; format: in vivo; settings: for concentration at 0.25 h: 15 minutes after dosing, l-isomer orally 5 mg/kg, read-out: plasma glaucine level after 15 minutes
Method: Test compounds were administered to guinea pigs, and blood samples were collected at 15 minute intervals and analyzed to determine plasma concentration levels of glaucine.
Similar results were obtained with d- and l-glaucine phosphate, with l-glaucine phosphate producing from 3 to 6 or more times the levels obtained with the d-isomer throughout a 120 minute period.

[9] = in vivo; cited from earlier work
mice [10] = settings: cited from earlier work
[11] = in vivo; cited from earlier work; remark: listed apart in the source
[12] = in vivo; cited from earlier work; remark: listed apart in the source
[13] = naloxone 100 mg/kg intraperitoneal after last dose on second day

With `COc1cc2c(cc1OC)-c1c(OC)c(OC)cc3c1C(C2)N(C)CC3` (racemic) [d,l-glaucine lactate] the “oral ED50 (phenyl-p-quinone writhing)” value (mice [1]; 30 min) was 25.5 mg/kg, the “jumping behavior after naloxone (in words)” value (mice [2]) was “no jumping in any of the ten mice tested” and the “LD50, intraperitoneal” value (mice [3]; intraperitoneal) was 178 mg/kg. For the same compound, the “LD50, oral” value (mice [3]; oral, 4320 min) was 383 mg/kg.

For `COc1cc2c(cc1OC)-c1c(OC)c(OC)cc3c1C(C2)N(C)CC3` (racemic) [d,l-glaucine phosphate], the ED50 (mice [1]) was 23 mg/kg, the self-administration response rate (monkeys) was 10-20 responses/two hour session and the “stimulation and Straub tail” value (mice [2]) was “no Straub tail at the highest dose”. The “jumping behavior after naloxone (in words)” value (mice [2]; listed as d,l-Glaucine phosphate 1:11/2 salt) was “no jumping behavior in any of the eight mice tested”, the LD50 at 72 h ([4]; ip, intraperitoneal, read-out: LD50, intraperitoneal) was 178 mg/kg and the LD50 at 72 h ([4]; po, read-out: LD50, oral) was no less than 681 mg/kg.

With `COc1ccc2c3c1O[C@H]1[C@@H](O)C=C[C@H]4[C@@H](C2)N(C)CC[C@@]341` [codeine phosphate] the “ED50 (tail pinch)” value [5] was 6.8 mg/kg, the ED50 (mice [1]) was 21.1 mg/kg and the “stimulation and Straub tail” value (mice [2]) was “produced Straub tail and stimulation”. The “mice jumping after naloxone” value (mice [2]; [13]) was 2 of 6 and the “total jumps after naloxone” value (mice [2]; [13]) was 23 jumps total.

In the case of `COc1ccc2c3c1O[C@H]1[C@@H](O)C=C[C@H]4[C@@H](C2)N(C)CC[C@@]341` [codeine], the self-administration response rate (monkeys) is reported as 100-150 responses/two hour session.

With `CCC(=O)O[C@](Cc1ccccc1)(c1ccccc1)[C@H](C)CN(C)C` [d-Propoxyphene·HCl] the “ED50 (tail pinch)” value [5] was 16.7 mg/kg.

With `COc1cc2c(cc1OC)-c1c(OC)c(OC)cc3c1[C@H](C2)N(C)CC3` [d-glaucine hydrobromide] the ED50 (mice [6]) was 12.9 mg/kg, the “95 percent confidence limits of ED50 (HCl writhing)” value (mice [6]) was 5.24 to 31.8 mg/kg and the ED50 (mice [7]) was 23.8 mg/kg. The “analgesic activity (tail pinch)” value [5] was “No analgesic activity was observed”, the ED50 (mice [1]) was 34 mg/kg and the “plasma level after initial peak, throughout the 90 minute period” value ([8]; after initial peak at 15 minutes, to 90 minutes) was 20-40 nanograms/ml. For the same compound, the concentration at 0.25 h ([8]; guinea pig, plasma, po) was roughly 50 ng/mL, the Tmax ([8]; guinea pig, plasma, read-out: time of initial peak plasma level (converted)) was 15 min and the antitussive activity [9] was “antitussive activity”.

In the case of `COc1cc2c(cc1OC)-c1c(OC)c(OC)cc3c1[C@H](C2)N(C)CC3` [d-glaucine], the “hexenal and chloral hydrate sleep time” value (mice [10]) is given as “prolongs hexenal and chloral hydrate sleep time”, the “doses with analgesic activity” value [11] is given as 50 to 100 mg/kg and the adrenolytic activity [12] is given as “adrenolytic activity”.

With `COc1cc2c(cc1OC)-c1c(OC)c(OC)cc3c1[C@@H](C2)N(C)CC3` [l-glaucine hydrobromide] the ED50 (mice [6]) was 5.99 mg/kg, the “95 percent confidence limits of ED50 (HCl writhing)” value (mice [6]) was 2.43 to 14.8 mg/kg and the ED50 (mice [7]) was 12.7 mg/kg. The “analgesic activity (tail pinch)” value [5] was “No analgesic activity was observed”, the ED50 (mice [1]) was 17 mg/kg and the concentration at 0.25 h ([8]; guinea pig, plasma, po) was roughly 40 ng/mL. For the same compound, the concentration at 1.5 h ([8]; guinea pig, plasma, po, orally 5 mg/kg, end of 90 minutes test period, read-out: plasma glaucine level at end of test period) was roughly 200 ng/mL, the Cmax ([8]; guinea pig, plasma, po, orally 5 mg/kg, one hour after administration, read-out: peak plasma glaucine level) was greater than 350 ng/mL and the “time of peak plasma level” value ([8]; orally 5 mg/kg) was “one”.
